Assay results published in US8680052B1, “Methods of treating, reducing the incidence of, and/or preventing ischemic events” (The Medicines Company, priority 2013, dated 2014).

Assays:
[1] = tested on: platelets; experiment: Example 4: platelet activation measured by flow cytometry; format: in vivo, human; conditions: P-selectin expression, 1 μM ADP
Experimental: (§1) The study involved 12 patients who met the criteria of being 18-75 years of age, having coronary artery disease (CAD) documented by a previous MI or coronary revascularization, and taking 81 mg of aspirin daily. […] Prohibited concomitant medications included strong and potent CYP3A inhibitors, simvastatin and lovastatin at doses more than 40 mg/day, omeprazole or esomeprazole, and digoxin. Use of non-steroidal anti-inflammatory agents was discouraged during study participation but not prohibited.
(§2) Each patient was administered a 30 μg/kg bolus of cangrelor followed immediately by a 2 hr infusion at a rate of 4.0 μg/kg/min. A loading dose of ticagrelor (180 mg) was given after 0.5 hr or 1.25 hr (n=6 for each). Blood for pharmacodynamic platelet function studies was taken after 0.5 or 1.25 hr (corresponding to the time of ticagrelor load, n=6 for each), and then at 1.75, 2, 2.25, 2.5, 2.75, 3, 4, and 5.25 hr. Patients were assigned randomly to receive either 6 (n=6) or 7 (n=6) doses of ticagrelor to be taken every 12 hours following the discontinuation of the infusion of cangrelor. On study day 5, each patient was administered a 30 μg/kg bolus of cangrelor followed immediately by a 2 hr infusion at a rate of 4.0 μg/kg/min. Blood for pharmacodynamic assessment was taken after 1 and 2 hr. Adverse events were queried throughout study participation that ended with a telephone interview performed on study day 10-12.
(§3) Pharmacodynamic assessment included light transmission aggregometry (LTA), VerifyNow® P2Y12 assay, vasodilator-stimulated phosphoprotein (VASP) index, and platelet activation measured with the use of flow cytometry. Assessment of LTA, VerifyNow®, and platelet activation with the use of flow cytometry was performed within 30 min of blood being taken. In the case of flow cytometry, samples were processed to fixation and then batched for analysis. For VASP, index samples were batched and processed as recommended by the vendor within 2 h of blood being taken. This approach limited the time from fixation of VASP index to flow analysis to less than 1 h.
(§4) LTA induced by 5 μM and 20 μM adenosine diphosphate (ADP) was quantified ex vivo (i.e. in non-adjusted platelet rich plasma). Platelet-poor plasma was set as 100% aggregation, and both maximal (peak) and terminal (at 300 s) aggregation were measured with a PAP4 aggregometer (BioData, Horsham, Pa.). VerifyNow® P2Y12 assay (Accumetrics Inc, San Diego, Calif.) that measures the effects of drugs on the P2Y12 receptor by activating platelets with prostaglandin El in addition to ADP was used in accordance with the instructions provided by the manufacturer. Platelet reactivity was expressed in P2Y12 reaction units (PRU). Activation of platelets was identified with the use of flow cytometry as previously described.^17. And to determine the VASP index, a commercially available kit (Diagnostica Stago, Inc, Parsippany NJ) was used. ^17 Schneider D J, Sobel B E. Streamlining the design of promising clinical trials: in-vitro testing of antithrombotic regimens and multiple agonists of platelet activation. Coron Artery Dis. 2009; 20:175-8.

[2] = tested on: vasodilator-stimulated phosphoprotein (VASP); experiment: Example 4: vasodilator-stimulated phosphoprotein (VASP) index; format: in vivo, human
Experimental: as §1, §2, §3, §4

[3] = reference 5.25 h, Ticagrelor at 0.5 h
[4] = reference 5.25 h, Ticagrelor at 1.25 h
[5] = Study Day 1, 1.75 h, Ticagrelor at 0.5 hr
[6] = Study Day 1, 1.75 h, Ticagrelor at 1.25 hr
[7] = Study Day 1, 2.0 h, Ticagrelor at 0.5 hr
[8] = Study Day 1, 2.0 h, Ticagrelor at 1.25 hr
[9] = Study Day 1, reference 0.5/1.25 h, All
[10] = Study Day 1, reference 0.5/1.25 h, Ticagrelor at 0.5 hr
[11] = Study Day 1, reference 0.5/1.25 h, Ticagrelor at 1.25 hr
[12] = Study Day 5, 1.0 h, Ticagrelor 6 doses
[13] = Study Day 5, 1.0 h, Ticagrelor 7 doses
[14] = Study Day 5, 2.0 h, Ticagrelor 6 doses
[15] = Study Day 5, 2.0 h, Ticagrelor 7 doses

SMILES: CCCSc1nc(N[C@@H]2C[C@H]2c2ccc(F)c(F)c2)c2nnn([C@@H]3C[C@H](OCCO)[C@@H](O)[C@H]3O)c2n1 [ticagrelor]
- Flow Cytometry IPR ([1]; 2.25 h, All): 84 ± 8
- Flow Cytometry PR ([1]; 2.25 h, All): 7.8 ± 3.7
- Flow Cytometry IPR ([1]; 2.25 h, Ticagrelor at 0.5 h): 86 ± 8
- Flow Cytometry PR ([1]; 2.25 h, Ticagrelor at 0.5 h): 7.5 ± 2.4
- Flow Cytometry IPR ([1]; 2.25 h, Ticagrelor at 1.25 h): 83 ± 9
- Flow Cytometry PR ([1]; 2.25 h, Ticagrelor at 1.25 h): 8 ± 4.9
- Flow Cytometry IPR ([1]; 2.5 h, All): 67 ± 29
- Flow Cytometry PR ([1]; 2.5 h, All): 14 ± 8.6
- Flow Cytometry IPR ([1]; 2.5 h, Ticagrelor at 0.5 h): 81 ± 17
- Flow Cytometry PR ([1]; 2.5 h, Ticagrelor at 0.5 h): 9.2 ± 5.9
- Flow Cytometry IPR ([1]; 2.5 h, Ticagrelor at 1.25 h): 53 ± 34
- Flow Cytometry PR ([1]; 2.5 h, Ticagrelor at 1.25 h): 19 ± 8.5
- Flow Cytometry IPR ([1]; 2.75 h, All): 80 ± 17
- Flow Cytometry PR ([1]; 2.75 h, All): 8.8 ± 5.6
- Flow Cytometry IPR ([1]; 2.75 h, Ticagrelor at 0.5 h): 82 ± 13
- Flow Cytometry PR ([1]; 2.75 h, Ticagrelor at 0.5 h): 9.3 ± 4.7
- Flow Cytometry IPR ([1]; 2.75 h, Ticagrelor at 1.25 h): 79 ± 22
- Flow Cytometry PR ([1]; 2.75 h, Ticagrelor at 1.25 h): 8.3 ± 6.9
- Flow Cytometry IPR ([1]; 3 h, All): 86 ± 13
- Flow Cytometry PR ([1]; 3 h, All): 6.5 ± 4.1
- Flow Cytometry IPR ([1]; 3 h, Ticagrelor at 0.5 h): 87 ± 10
- Flow Cytometry PR ([1]; 3 h, Ticagrelor at 0.5 h): 6.8 ± 2.9
- Flow Cytometry IPR ([1]; 3 h, Ticagrelor at 1.25 h): 86 ± 16
- Flow Cytometry PR ([1]; 3 h, Ticagrelor at 1.25 h): 6.2 ± 5.3
- Flow Cytometry IPR ([1]; 4 h, All): 84 ± 15
- Flow Cytometry PR ([1]; 4 h, All): 7.5 ± 6.2
- Flow Cytometry IPR ([1]; 4 h, Ticagrelor at 0.5 h): 90 ± 4
- Flow Cytometry PR ([1]; 4 h, Ticagrelor at 0.5 h): 5.5 ± 2.4
- Flow Cytometry IPR ([1]; 4 h, Ticagrelor at 1.25 h): 78 ± 20
- Flow Cytometry PR ([1]; 4 h, Ticagrelor at 1.25 h): 9.5 ± 8.2
- Flow Cytometry IPR ([1]; reference 5.25 h, All): 91 ± 6
- Flow Cytometry PR ([1]; reference 5.25 h, All): 5 ± 3.6
- Flow Cytometry IPR [1, 3]: 91 ± 4
- Flow Cytometry PR [1, 3]: 5.5 ± 3.9
- Flow Cytometry IPR [1, 4]: 91 ± 7
- Flow Cytometry PR [1, 4]: 4.5 ± 2
- VASP Index VI ([2]; 2.25 h, All): 35 ± 10
- VASP Index VI ([2]; 2.25 h, Ticagrelor at 0.5 h): 37 ± 8
- VASP Index VI ([2]; 2.25 h, Ticagrelor at 1.25 h): 32 ± 11
- VASP Index VI ([2]; 2.5 h, All): 48 ± 49
- VASP Index VI ([2]; 2.5 h, Ticagrelor at 0.5 h): 41 ± 25
- VASP Index VI ([2]; 2.5 h, Ticagrelor at 1.25 h): 54 ± 32
- VASP Index VI ([2]; 2.75 h, All): 22 ± 16
- VASP Index VI ([2]; 2.75 h, Ticagrelor at 0.5 h): 21 ± 13
- VASP Index VI ([2]; 2.75 h, Ticagrelor at 1.25 h): 22 ± 20
- VASP Index VI ([2]; 3 h, All): 25 ± 19
- VASP Index VI ([2]; 3 h, Ticagrelor at 0.5 h): 24 ± 19
- VASP Index VI ([2]; 3 h, Ticagrelor at 1.25 h): 26 ± 20
- VASP Index VI ([2]; 4 h, All): 17 ± 14
- VASP Index VI ([2]; 4 h, Ticagrelor at 0.5 h): 16 ± 14
- VASP Index VI ([2]; 4 h, Ticagrelor at 1.25 h): 19 ± 16
- VASP Index VI ([2]; reference 5.25 h, All): 12 ± 12
- VASP Index VI [2, 3]: 11 ± 10
- VASP Index VI [2, 4]: 14 ± 15

SMILES: CSCCNc1nc(SCCC(F)(F)F)nc2c1ncn2[C@@H]1O[C@H](COP(=O)(O)OP(=O)(O)C(Cl)(Cl)P(=O)(O)O)[C@@H](O)[C@H]1O [Cangrelor, cangrelor]
- Flow Cytometry IPR ([1]; Study Day 1, 1.75 h, All): 94 ± 5
- Flow Cytometry PR ([1]; Study Day 1, 1.75 h, All): 2.5 ± 1
- Flow Cytometry IPR [1, 5]: 96 ± 2
- Flow Cytometry PR [1, 5]: 2 ± 0.6
- Flow Cytometry IPR [1, 6]: 92 ± 7
- Flow Cytometry PR [1, 6]: 3 ± 1.1
- Flow Cytometry IPR ([1]; Study Day 1, 2.0 h, All): 89 ± 30
- Flow Cytometry PR ([1]; Study Day 1, 2.0 h, All): 3.8 ± 4.5
- Flow Cytometry IPR [1, 7]: 96 ± 2
- Flow Cytometry PR [1, 7]: 2.3 ± 0.8
- Flow Cytometry IPR [1, 8]: 83 ± 28
- Flow Cytometry PR [1, 8]: 5.3 ± 6.3
- Flow Cytometry IPR [1, 9]: 94 ± 4
- Flow Cytometry PR [1, 9]: 2.8 ± 1.2
- Flow Cytometry IPR [1, 10]: 94 ± 5
- Flow Cytometry PR [1, 10]: 3 ± 1.7
- Flow Cytometry IPR [1, 11]: 94 ± 3
- Flow Cytometry PR [1, 11]: 1.5 ± 0.5
- Flow Cytometry IPR ([1]; Study Day 5, 1.0 h, All): 92 ± 4
- Flow Cytometry PR ([1]; Study Day 5, 1.0 h, All): 4.1 ± 2.7
- Flow Cytometry IPR [1, 12]: 91 ± 3
- Flow Cytometry PR [1, 12]: 3.5 ± 1.4
- Flow Cytometry IPR [1, 13]: 93 ± 5
- Flow Cytometry PR [1, 13]: 4.7 ± 3.6
- Flow Cytometry IPR ([1]; Study Day 5, 2.0 h, All): 95 ± 3
- Flow Cytometry PR ([1]; Study Day 5, 2.0 h, All): 2.8 ± 1.3
- Flow Cytometry IPR [1, 14]: 93 ± 3
- Flow Cytometry PR [1, 14]: 2.7 ± 1.2
- Flow Cytometry IPR [1, 15]: 96 ± 2
- Flow Cytometry PR [1, 15]: 2.8 ± 1.5
- VASP Index VI ([2]; Study Day 1, 1.75 h, All): 13 ± 9
- VASP Index VI [2, 5]: 13 ± 9
- VASP Index VI [2, 6]: 13 ± 4
- VASP Index VI ([2]; Study Day 1, 2.0 h, All): 15 ± 9
- VASP Index VI [2, 7]: 11 ± 7
- VASP Index VI [2, 8]: 19 ± 7
- VASP Index VI [2, 9]: 18 ± 10
- VASP Index VI [2, 10]: 18 ± 13
- VASP Index VI [2, 11]: 19 ± 8
- VASP Index VI ([2]; Study Day 5, 1.0 h, All): 16 ± 11
- VASP Index VI [2, 12]: 19 ± 14
- VASP Index VI [2, 13]: 12 ± 7
- VASP Index VI ([2]; Study Day 5, 2.0 h, All): 17 ± 5
- VASP Index VI [2, 14]: 20 ± 3
- VASP Index VI [2, 15]: 14 ± 6
